{"source": "patent US12291511B2", "about": "“Polymerase inhibitors and related compositions and methods” (Promega Corporation, priority 2018, dated 2025)", "assay_type_in_all_cases": "biochemical", "key": {"Taq DNA Polymerase": {"biological_target": "Taq DNA Polymerase (Thermus aquaticus, UniProt P19821)", "sequence (P19821 whole entry)": "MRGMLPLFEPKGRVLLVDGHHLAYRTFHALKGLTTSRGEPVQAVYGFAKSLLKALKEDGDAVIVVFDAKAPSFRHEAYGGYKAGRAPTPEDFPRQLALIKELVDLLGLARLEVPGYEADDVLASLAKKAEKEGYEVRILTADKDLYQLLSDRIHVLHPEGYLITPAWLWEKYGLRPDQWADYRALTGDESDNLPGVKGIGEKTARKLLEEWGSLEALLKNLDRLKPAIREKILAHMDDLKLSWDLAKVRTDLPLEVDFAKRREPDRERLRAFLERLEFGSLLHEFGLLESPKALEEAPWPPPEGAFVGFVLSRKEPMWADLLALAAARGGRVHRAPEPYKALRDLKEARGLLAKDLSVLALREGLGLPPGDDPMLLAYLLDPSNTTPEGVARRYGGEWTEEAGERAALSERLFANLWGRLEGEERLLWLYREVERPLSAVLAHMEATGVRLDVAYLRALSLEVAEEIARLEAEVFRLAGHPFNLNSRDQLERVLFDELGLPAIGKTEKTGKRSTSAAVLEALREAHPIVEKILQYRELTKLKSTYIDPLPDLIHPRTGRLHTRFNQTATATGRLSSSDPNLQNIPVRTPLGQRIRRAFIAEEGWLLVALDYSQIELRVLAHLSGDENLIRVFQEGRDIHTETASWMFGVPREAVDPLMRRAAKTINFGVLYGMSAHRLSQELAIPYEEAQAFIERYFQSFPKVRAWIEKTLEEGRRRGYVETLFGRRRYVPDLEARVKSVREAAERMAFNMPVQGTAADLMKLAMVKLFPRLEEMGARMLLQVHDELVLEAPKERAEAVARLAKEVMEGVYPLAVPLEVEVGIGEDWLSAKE", "test": "Activated calf thymus DNA polymerase activity assay (radioactive incorporation) at 22° C.", "protocol": "Activity assays were used to test the concentrations of small molecule polymerase inhibitors in specific reaction conditions to determine inhibition efficacy. Corresponding IC50 values were also determined for the compounds. Activity assays were also used to test the temperatures or temperature ranges at which the reactions are inhibited by the compounds.\nExemplary activity assays can be carried out according to a variety of methods. For example, a DNA polymerase activity assay monitoring radioactive incorporation where “activated” calf thymus or salmon sperm DNA is used as the DNA substrate. Along with the DNA substrate, the reactions minimally contain a buffer (e.g., GoTaq® buffer), magnesium, dNTPs, and polymerase. Reactions were stopped, and DNA was precipitated by ice-cold TCA (tricholoracetic acid), incubated on ice for at least 10 minutes, filtered using GF/C filters, and radioactive incorporation in precipitable DNA (on filter) measured by scintillation counting. (See, e.g., Apospian & Kornberg. (1962) JBC 237:519-525.; Chien et al. (1976) J. Bact. 127:1550-1557.)\nFIG. 7 includes a representation of a polymerase activity assay carried out at 22° C., where an inhibitor (i.e. compound #7124) is titrated. FIG. 7 is an example of an activity assay where IC50 can be determined. […] Activated calf thymus DNA activity assay was used in these experiments. […]"}, "Taq [1]": {"biological_target": "T1, Taq (Thermus aquaticus, UniProt P19821)", "T1 sequence (P19821 whole entry)": "as above", "test": "Hot-start PCR of CCR5 gene (500 bp amplicon) with human genomic DNA as template", "settings": "CCR5 target; for 500 bp yield: compared with no hot-start (GoTaq® DNA Polymerase)", "text": "Testing of Human Genomic Templates. FIG. 11 includes a representative image of an agarose gel used to evaluate the CCR5 gene amplification products of various hot-start PCR reactions performed with and without two different polymerase inhibitors (compound #7124 and compound #7261) and using human genomic DNA as a template. The target amplicon is 500 bp, and without the use of hot-start, there is a significant amount of primer dimer. With compound #7124 and compound #7261, the 500 bp yield increased, but primer dimer amounts remained (compare to GoTaq® DNA Polymerase treatment for no hot-start and GoTaq® Hot-Start DNA Polymerase with an antibody-mediated hot-start). Reaction components are provided in Table 2 below; the following cycling methods were used: [(22° C. for 90 min, 94° C. for 2 min) 1 cycle, (92° C. for 30 sec, 68° C. for 2 min) 45 cycles, (72° C. for 5 min) 1 cycle, 4° C. soak]."}, "Taq [2]": {"biological_target": "T1, Taq", "test": "Hot-start PCR of Human Dystrophin Alu 7-2 gene (320 bp amplicon) with human genomic DNA as template", "settings": "HD Alu 7-2 target; for secondary products (seen as a smear): at certain concentrations; for 320 bp yield: human genomic DNA, compared with no hot-start", "protocol": "FIG. 12 includes a representative image of an agarose gel used to evaluate the Human Dystrophin Alu-72 gene amplification products of various hot-start PCR reactions performed with and without two different polymerase inhibitors (compound #7124 and compound #7261) and using human genomic DNA as a template. The target amplicon is 320 bp, and without hot-start, there is less yield. […] Reaction components are provided in Table 2 below; the following cycling methods were used: [(22° C. for 90 min, 94° C. for 2 min) 1 cycle, (94° C. for 50 sec, 59° C. for 50 sec, 68° C. for 2 min) 42 cycles, 4° C. soak]."}, "[3]": {"biological_target": "T2, GoTaq® DNA Polymerase (Taq DNA polymerase) (Thermus aquaticus, UniProt P19821)", "T2 construct": "purchased", "T2 sequence (P19821 whole entry, the tested form may be a part)": "as the sequence (P19821 whole entry) above", "test": "Hot-start PCR of 1.5 kb fragment of the Corynephage omega gene from plasmid DNA, after 22° C. pre-incubation, agarose gel read-out", "settings": "'25 to 150 μM or greater' for the derivatives", "protocol": "When carried out using hot-start conditions, the polymerase (e.g., Taq polymerase) was inhibited at lower temperatures, but activated at the start of amplification when temperatures increased to denature the DNA (e.g., 95° C.); the amplification produced a single product approximately 1.5 kb in size. When carried out using non-hot-start conditions, the DNA polymerase was not inhibited at lower temperatures, and amplification produced a product approximately 400 bp in size (among other secondary products), and the 1.5 kb fragment was transiently present. To test the ability of the thermally-labile small molecule polymerase to inhibit DNA polymerase (e.g., Taq DNA polymerase) activity, the amplification reactions were incubated at 22° C. for 1.5 to 6 hours or longer prior to performing PCR amplification.\nThe amplifications were set up at room temperature. The thermally-labile small molecule polymerase inhibitor(s) were titrated (concentrations will depend on exact compound, enzyme being inhibited, detergent concentration, and other buffer conditions) into reactions. For these experiments, the following composition were used: 1× GoTaq® Colorless Flexi Buffer, 2.5 mM MgCl2, 200 μM each dNTP, 0.4 μM each primer, 0.025 U/μl GoTaq® DNA Polymerase, 500 pg plasmid DNA and nuclease-free water to bring it to a 25 μl reaction. […]"}}, "data": [{"smiles": "CCCCCCCCCCCCC(OC(=O)NCCCS(=O)(=O)[O-])c1ccc(OC)cc1.[Na+]", "note": "(centres unmarked) [compound #7124, Sodium 3-((((1-(4-methoxyphenyl)tridecyl)oxy)carbonyl)amino)propane-1-sulfonate]", "values": [{"measurement": "inhibition ultimately reached as concentration increased", "setting": "Taq DNA Polymerase; high inhibitor concentration", "value": 100, "unit": "%"}, {"measurement": "IC50", "setting": "Taq DNA Polymerase; titration of inhibitor, calculated from graph (FIG. 7)", "value": "~150", "unit": "µM"}, {"measurement": "primer dimer amounts", "setting": "Taq [1]", "value": "remained"}, {"measurement": "500 bp yield", "setting": "Taq [1]", "value": "increased"}, {"measurement": "secondary products (seen as a smear)", "setting": "Taq [2]", "value": "dramatically decreased"}, {"measurement": "320 bp yield", "setting": "Taq [2]", "value": "increased"}]}, {"smiles": "CCCCCCCCCCCCC(OC(=O)NCCCS(=O)(=O)[O-])c1ccc(Cl)o1.[Na+]", "note": "(centres unmarked) [compound #7261, Sodium 3-((((1-(5-chlorofuran-2-yl)tridecyl)oxy)carbonyl)amino)propane-1-sulfonate]", "values": [{"measurement": "potency of DNA polymerase inhibitors (summary comparison of #7261 with derivatives)", "setting": "[3]", "value": "about 75 μM"}, {"measurement": "primer dimer amounts", "setting": "Taq [1]", "value": "remained"}, {"measurement": "500 bp yield", "setting": "Taq [1]", "value": "increased"}, {"measurement": "secondary products (seen as a smear)", "setting": "Taq [2]", "value": "dramatically decreased"}, {"measurement": "320 bp yield", "setting": "Taq [2]", "value": "increased"}]}]}
